Experimental data reported in PubChem BioAssay (NCI).
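GI50 is the concentration that inhibits growth by half. TGI denotes the concentration required for complete inhibition of growth.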

What was measured:
Assay in all cases: NCI tumour cell line growth inhibition, 384-well format
786-0 renal = tested on: 786-0 renal
A498 renal = tested on: A498 renal
A549 NSCLC = tested on: A549 NSCLC
ACHN renal = tested on: ACHN renal
BT-549 breast = tested on: BT-549 breast
CAKI-1 renal = tested on: CAKI-1 renal
CCRF-CEM leukemia = tested on: CCRF-CEM leukemia
COLO 205 colon = tested on: COLO 205 colon
DU-145 prostate = tested on: DU-145 prostate
EKVX NSCLC = tested on: EKVX NSCLC
HCC-2998 colon = tested on: HCC-2998 colon
HCT-116 colon = tested on: HCT-116 colon
HCT-15 colon = tested on: HCT-15 colon
HL-60(TB) leukemia = tested on: HL-60(TB) leukemia
HOP-62 NSCLC = tested on: HOP-62 NSCLC
HOP-92 NSCLC = tested on: HOP-92 NSCLC
HS 578T breast = tested on: HS 578T breast
HT29 colon = tested on: HT29 colon
IGROV1 ovarian = tested on: IGROV1 ovarian
K-562 leukemia = tested on: K-562 leukemia
KM12 colon = tested on: KM12 colon
LOX IMVI melanoma = tested on: LOX IMVI melanoma
M14 melanoma = tested on: M14 melanoma
MALME-3M melanoma = tested on: MALME-3M melanoma
MCF7 breast = tested on: MCF7 breast
MDA-MB-231 breast = tested on: MDA-MB-231 breast
MDA-MB-435 melanoma = tested on: MDA-MB-435 melanoma
MDA-MB-468 breast = tested on: MDA-MB-468 breast
MOLT-4 leukemia = tested on: MOLT-4 leukemia
NCI-H226 lung = tested on: NCI-H226 lung
NCI-H23 lung = tested on: NCI-H23 lung
NCI-H322M lung = tested on: NCI-H322M lung
NCI-H460 NSCLC = tested on: NCI-H460 NSCLC
NCI-H522 lung = tested on: NCI-H522 lung
NCI/ADR-RES ovarian = tested on: NCI/ADR-RES ovarian
OVCAR-3 ovarian = tested on: OVCAR-3 ovarian
OVCAR-4 ovarian = tested on: OVCAR-4 ovarian
OVCAR-5 ovarian = tested on: OVCAR-5 ovarian
OVCAR-8 ovarian = tested on: OVCAR-8 ovarian
PC-3 prostate = tested on: PC-3 prostate
RPMI-8226 leukemia = tested on: RPMI-8226 leukemia
RXF 393 renal = tested on: RXF 393 renal
SF-268 CNS = tested on: SF-268 CNS
SF-295 CNS = tested on: SF-295 CNS
SF-539 CNS = tested on: SF-539 CNS
SK-MEL-28 melanoma = tested on: SK-MEL-28 melanoma
SK-MEL-5 melanoma = tested on: SK-MEL-5 melanoma
SK-OV-3 ovarian = tested on: SK-OV-3 ovarian
SN12C renal = tested on: SN12C renal
SNB-19 CNS = tested on: SNB-19 CNS
SNB-75 CNS = tested on: SNB-75 CNS
SW-620 colon = tested on: SW-620 colon
T-47D breast = tested on: T-47D breast
TK-10 renal = tested on: TK-10 renal
U251 glioblastoma = tested on: U251 glioblastoma
UACC-257 melanoma = tested on: UACC-257 melanoma
UACC-62 melanoma = tested on: UACC-62 melanoma
UO-31 renal = tested on: UO-31 renal

CNC(=O)c1ccc(Nc2nc(OC3CCCC3)c3c(-c4ccc5nc(C)oc5c4)c[nH]c3n2)c(OC)c1
GI50 ([…]-0 renal): 65 nM | TGI (786-0 renal): 14200 nM | GI50 (A498 renal): 239 nM | TGI (A498 renal): 9430 nM | GI50 (A549 NSCLC): 22.3 nM | TGI (A549 NSCLC): 2890 nM | GI50 (ACHN renal): 87.8 nM | TGI (ACHN renal): 15500 nM | GI50 (BT-549 breast): 94.9 nM | TGI (BT-549 breast): 65100 nM | GI50 (CAKI-1 renal): 387 nM | TGI (CAKI-1 renal): 3290 nM | GI50 (CCRF-CEM leukemia): 22.6 nM | TGI (CCRF-CEM leukemia): 44.5 nM | GI50 (COLO 205 colon): 33.1 nM | TGI (COLO 205 colon): 233 nM | GI50 (DU-145 prostate): 74.3 nM | TGI (DU-145 prostate): 15800 nM | GI50 (EKVX NSCLC): 187 nM | TGI (EKVX NSCLC): 15300 nM | GI50 (HCC-2998 colon): 24500 nM | TGI (HCC-2998 colon): > 100000 nM | GI50 (HCT-116 colon): 46.7 nM | TGI (HCT-116 colon): 11000 nM | GI50 (HCT-15 colon): 37.5 nM | TGI (HCT-15 colon): 2840 nM | GI50 (HL-60(TB) leukemia): 40.8 nM | TGI (HL-60(TB) leukemia): 1310 nM | GI50 (HOP-62 NSCLC): 37.6 nM | TGI (HOP-62 NSCLC): 5770 nM | GI50 (HOP-92 NSCLC): 681 nM | TGI (HOP-92 NSCLC): 9340 nM | GI50 (HS 578T breast): 77.5 nM | TGI (HS 578T breast): 891 nM | GI50 (HT29 colon): 84.5 nM | TGI (HT29 colon): > 100000 nM | GI50 (IGROV1 ovarian): 145 nM | TGI (IGROV1 ovarian): 15800 nM | GI50 (K-562 leukemia): 121 nM | TGI (K-562 leukemia): 19400 nM | GI50 (KM12 colon): 81.7 nM | TGI (KM12 colon): > 100000 nM | GI50 (LOX IMVI melanoma): 45.4 nM | TGI (LOX IMVI melanoma): 14200 nM | GI50 (M14 melanoma): 84.3 nM | TGI (M14 melanoma): 63800 nM | GI50 (MALME-3M melanoma): 93.6 nM | TGI (MALME-3M melanoma): 14200 nM | GI50 (MCF7 breast): 130 nM | TGI (MCF7 breast): 15700 nM | GI50 (MDA-MB-231 breast): 290 nM | TGI (MDA-MB-231 breast): > 100000 nM | GI50 (MDA-MB-435 melanoma): 11000 nM | TGI (MDA-MB-435 melanoma): 49100 nM | GI50 (MDA-MB-468 breast): 45.4 nM | TGI (MDA-MB-468 breast): 226 nM | GI50 (MOLT-4 leukemia): 11.8 nM | TGI (MOLT-4 leukemia): 30.4 nM | GI50 (NCI-H226 lung): 381 nM | TGI (NCI-H226 lung): 9700 nM | GI50 (NCI-H23 lung): 64.3 nM | TGI (NCI-H23 lung): 615 nM | GI50 (NCI-H322M lung): 593 nM | TGI (NCI-H322M lung): 52800 nM | GI50 (NCI-H460 NSCLC): 34.8 nM | TGI (NCI-H460 NSCLC): 1710 nM | GI50 (NCI-H522 lung): 99.8 nM | TGI (NCI-H522 lung): 1440 nM | GI50 (NCI/ADR-RES ovarian): 316 nM | TGI (NCI/ADR-RES ovarian): 60500 nM | GI50 (OVCAR-3 ovarian): 169 nM | TGI (OVCAR-3 ovarian): 965 nM | GI50 (OVCAR-4 ovarian): 1900 nM | TGI (OVCAR-4 ovarian): 17700 nM | GI50 (OVCAR-5 ovarian): 146 nM | TGI (OVCAR-5 ovarian): > 100000 nM | GI50 (OVCAR-8 ovarian): 45.8 nM | TGI (OVCAR-8 ovarian): 12500 nM | GI50 (PC-3 prostate): 896 nM | TGI (PC-3 prostate): 15200 nM | GI50 (RPMI-8226 leukemia): 61.8 nM | TGI (RPMI-8226 leukemia): 271 nM | GI50 (RXF 393 renal): 106 nM | TGI (RXF 393 renal): 1960 nM | GI50 (SF-268 CNS): 18.5 nM | TGI (SF-268 CNS): 72.7 nM | GI50 (SF-295 CNS): 265 nM | TGI (SF-295 CNS): > 100000 nM | GI50 (SF-539 CNS): 47.6 nM | TGI (SF-539 CNS): 1840 nM | GI50 (SK-MEL-28 melanoma): 5580 nM | TGI (SK-MEL-28 melanoma): 30500 nM | GI50 (SK-MEL-5 melanoma): 73.5 nM | TGI (SK-MEL-5 melanoma): 1550 nM | GI50 (SK-OV-3 ovarian): 352 nM | TGI (SK-OV-3 ovarian): 5280 nM | GI50 (SN12C renal): 224 nM | TGI (SN12C renal): 2760 nM | GI50 (SNB-19 CNS): 225 nM | TGI (SNB-19 CNS): 41600 nM | GI50 (SNB-75 CNS): 68.6 nM | TGI (SNB-75 CNS): 1780 nM | GI50 (SW-620 colon): 53.5 nM | TGI (SW-620 colon): 762 nM | GI50 (T-47D breast): 250 nM | TGI (T-47D breast): > 100000 nM | GI50 (TK-10 renal): 626 nM | TGI (TK-10 renal): > 100000 nM | GI50 (U251 glioblastoma): 63 nM | TGI (U251 glioblastoma): 16000 nM | GI50 (UACC-257 melanoma): 328 nM | TGI (UACC-257 melanoma): 47300 nM | GI50 (UACC-62 melanoma): 167 nM | TGI (UACC-62 melanoma): 96400 nM | GI50 (UO-31 renal): 89.8 nM | TGI (UO-31 renal): > 100000 nM
